Target: His-tagged N-terminal ATP binding domain (amino acid residues 9-236) of HSP90α (Homo sapiens, UniProt P07900)
Experiment: HSP90 inhibitor binding potency: TRF competition binding assay
Conditions: Table I; read-out: Hsp90 IC50 Range
Procedure, shortened: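 His-tagged HSP90α N-domain (residues 9-236) incubated 2 h at room temperature with biotinylated radicicol and increasing compound in 50 mM HEPES, 6 mM MgCl2, 20 mM KCl, 0.1% BSA. Bound tracer captured on streptavidin plates, detected with europium anti-His antibody by time-resolved fluorescence; IC50 derived.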

Row | SMILES | IC50 [nM]
1 | Cc1nc(N)nc2c1C(=O)CC(c1ccccc1-c1cccc(NS(C)(=O)=O)c1)C2 (centres unmarked) [Compound 114, N-[2′-(2-amino-4-methyl-5-oxo-5,6,7,8-tetrahydroquinazolin-7-yl)-1,1′-biphenyl-3-yl]methanesulfonamide] | 1000 to 10000
2 | Cc1nc(N)nc2c1C(=O)CC(c1ccccc1-c1cccnn1)C2 (centres unmarked) [Compound 115, 2-amino-4-methyl-7-(2-pyridazin-3-ylphenyl)-7,8-dihydroquinazolin-5(6H)-one] | 1000 to 10000
3 | Cc1ncccc1-c1ccccc1C1CC(=O)c2c(C)nc(N)nc2C1 (centres unmarked) [Compound 116, 2-amino-4-methyl-7-[2-(2-methylpyridin-3-yl)phenyl]-7,8-dihydroquinazolin-5(6H)-one] | < 1000
4 | Cc1ccnc(-c2ccccc2C2CC(=O)c3c(C)nc(N)nc3C2)c1 (centres unmarked) [Compound 118, 2-amino-4-methyl-7-[2-(4-methylpyridin-2-yl)phenyl]-7,8-dihydroquinazolin-5(6H)-one] | < 1000
5 | Cc1cccc(-c2ccccc2C2CC(=O)c3c(C)nc(N)nc3C2)n1 (centres unmarked) [Compound 119, 2-amino-4-methyl-7-[2-(6-methylpyridin-2-yl)phenyl]-7,8-dihydroquinazolin-5(6H)-one] | > 10000
6 | Cc1cccnc1-c1ccccc1C1CC(=O)c2c(C)nc(N)nc2C1 (centres unmarked) [Compound 120, 2-amino-4-methyl-7-[2-(3-methylpyridin-2-yl)phenyl]-7,8-dihydroquinazolin-5(6H)-one] | 1000 to 10000
7 | Cc1nc(N)nc2c1C(=O)CC(c1ccccc1-c1ccc(F)cn1)C2 (centres unmarked) [Compound 123, 2-amino-7-[2-(5-fluoropyridin-2-yl)phenyl]-4-methyl-7,8-dihydroquinazolin-5(6H)-one] | < 1000
8 | COc1cccc(-c2ccccc2C2CC(=O)c3c(C)nc(N)nc3C2)n1 (centres unmarked) [Compound 124, 2-amino-7-[2-(6-methoxypyridin-2-yl)phenyl]-4-methyl-7,8-dihydroquinazolin-5(6H)-one] | < 1000
9 | COc1cccc(-c2cn(C)nc2C2CC(=O)c3c(C)nc(N)nc3C2)n1 (centres unmarked) [Compound 127, 2-amino-7-[4-(6-methoxy-pyridin-2-yl)-1-methyl-1H-pyrazol-3-yl]-4-methyl-7,8-dihydro-6H-quinazolin-5-one] | < 1000
10 | Cc1nc(N)nc2c1C(=O)CC(c1ccccc1-c1cccc3cc[nH]c13)C2 (centres unmarked) [Compound 129, 2-amino-7-[2-(1H-indol-7-yl)phenyl]-4-methyl-7,8-dihydroquinazolin-5(6H)-one] | < 1000
11 | COc1cccc(-c2cc(F)ccc2C2CC(=O)c3c(C)nc(N)nc3C2)n1 (centres unmarked) [Compound 130, 2-amino-7-[4-fluoro-2-(6-methoxy-pyridin-2-yl)-phenyl]-4-methyl-7,8-dihydro-6H-quinazolin-5-one] | < 1000
12 | Cc1nc(N)nc2c1C(=O)CC(c1ccccc1-c1cccc3c1NC(=O)C3)C2 (centres unmarked) [Compound 131, 2-amino-4-methyl-7-[2-(2-oxo-2,3-dihydro-1H-indol-7-yl)phenyl]-7,8-dihydroquinazolin-5(6H)-one] | 1000 to 10000
13 | COc1cccc(-c2cccc(OC)c2C2CC(=O)c3c(C)nc(N)nc3C2)n1 (centres unmarked) [Compound 132, 2-amino-7-[2-methoxy-6-(6-methoxy-pyridin-2-yl)-phenyl]-4-methyl-7,8-dihydro-6H-quinazolin-5-one] | < 1000
14 | Cc1nc(N)nc2c1C(=O)CC(c1ccccc1Oc1ccccc1)C2 (centres unmarked) [Compound 133, 2-amino-4-methyl-7-(2-phenoxyphenyl)-7,8-dihydroquinazolin-5(6H)-one] | < 1000
15 | Cc1cccc(Oc2ccccc2C2CC(=O)c3c(C)nc(N)nc3C2)c1 (centres unmarked) [Compound 135, 2-amino-4-methyl-7-[2-(3-methylphenoxy)phenyl]-7,8-dihydroquinazolin-5(6H)-one] | < 1000
16 | Cc1nc(N)nc2c1C(=O)CC(c1ccccc1Oc1cccc(F)c1)C2 (centres unmarked) [Compound 137, 2-amino-7-[2-(3-fluorophenoxy)phenyl]-4-methyl-7,8-dihydroquinazolin-5(6H)-one] | < 1000
17 | Cc1nc(N)nc2c1C(=O)CC(c1ccccc1Oc1ccc(F)cc1)C2 (centres unmarked) [Compound 139, 2-amino-7-[2-(4-fluorophenoxy)phenyl]-4-methyl-7,8-dihydroquinazolin-5(6H)-one] | 1000 to 10000
18 | Cc1nc(N)nc2c1C(=O)CC(c1ccccc1Oc1ccccn1)C2 (centres unmarked) [Compound 141, 2-amino-4-methyl-7-[2-(pyridin-2-yloxy)phenyl]-7,8-dihydroquinazolin-5(6H)-one] | < 1000
19 | Cc1nc(N)nc2c1C(=O)CC(c1ccccc1Oc1cncnc1)C2 (centres unmarked) [Compound 142, 2-amino-4-methyl-7-[2-(pyrimidin-5-yloxy)phenyl]-7,8-dihydroquinazolin-5(6H)-one] | < 1000
20 | Cc1nc(N)nc2c1C(=O)CC(c1ccccc1Oc1ncccn1)C2 (centres unmarked) [Compound 144, 2-amino-4-methyl-7-[2-(pyrimidin-2-yloxy)phenyl]-7,8-dihydroquinazolin-5(6H)-one] | 1000 to 10000
21 | Cc1nc(N)nc2c1C(=O)CC(c1ccccc1Oc1cccc(F)n1)C2 (centres unmarked) [Compound 145, 2-amino-7-{2-[(6-fluoropyridin-2-yl)oxy]phenyl}-4-methyl-7,8-dihydroquinazolin-5(6H)-one] | < 1000
22 | COc1cccc(Oc2ccccc2C2CC(=O)c3c(C)nc(N)nc3C2)n1 (centres unmarked) [Compound 146, 2-amino-7-{2-[(6-methoxypyridin-2-yl)oxy]phenyl}-4-methyl-7,8-dihydroquinazolin-5(6H)-one] | < 1000
23 | Cc1nc(N)nc2c1C(=O)CC(c1ccccc1Oc1ccnc(Cl)c1)C2 (centres unmarked) [Compound 147, 2-amino-7-{2-[(2-chloropyridin-4-yl)oxy]phenyl}-4-methyl-7,8-dihydroquinazolin-5(6H)-one] | 1000 to 10000
24 | CCOc1ccccc1C1CC(=O)c2c(C)nc(N)nc2C1 (centres unmarked) [Compound 148, 2-amino-7-(2-ethoxy-phenyl)-4-methyl-7,8-dihydro-6H-quinazolin-5-one] | < 1000
25 | Cc1nc(N)nc2c1C(=O)CC(c1ccccc1OC(C)C)C2 (centres unmarked) [Compound 149, 2-amino-7-(2-isopropoxy-phenyl)-4-methyl-7,8-dihydro-6H-quinazolin-5-one] | < 1000
26 | Cc1nc(N)nc2c1C(=O)CC(c1ccccc1OC1CCCC1)C2 (centres unmarked) [Compound 150, 2-amino-7-(2-cyclopentyloxy-phenyl)-4-methyl-7,8-dihydro-6H-quinazolin-5-one] | < 1000

Next, values leading:

Row | IC50 [nM] | SMILES
27 | > 10000 | Cc1nc(N)nc2c1C(=O)CC(c1ccccc1-c1cccc(OC(F)(F)F)c1)C2 (centres unmarked) [Compound 112, 2-amino-4-methyl-7-[3′-(trifluoromethoxy)-1,1′-biphenyl-2-yl]-7,8-dihydroquinazolin-5(6H)-one]
28 | < 1000 | Cc1nc(N)nc2c1C(=O)CC(c1ccccc1-c1ccccc1Oc1ccccc1)C2 (centres unmarked) [Compound 113, 2-amino-4-methyl-7-(2′-phenoxy-1,1′-biphenyl-2-yl)-7,8-dihydroquinazolin-5(6H)-one]
29 | < 1000 | Cc1ccc(-c2ccccc2C2CC(=O)c3c(C)nc(N)nc3C2)nc1 (centres unmarked) [Compound 117, 2-amino-4-methyl-7-[2-(5-methylpyridin-2-yl)phenyl]-7,8-dihydroquinazolin-5(6H)-one]
30 | > 10000 | Cc1ccncc1-c1ccccc1C1CC(=O)c2c(C)nc(N)nc2C1 (centres unmarked) [Compound 121, 2-amino-4-methyl-7-[2-(4-methylpyridin-3-yl)phenyl]-7,8-dihydroquinazolin-5(6H)-one]
31 | < 1000 | Cc1nc(N)nc2c1C(=O)CC(c1ccccc1-c1cccc(F)n1)C2 (centres unmarked) [Compound 122, 2-amino-7-[2-(6-fluoropyridin-2-yl)phenyl]-4-methyl-7,8-dihydroquinazolin-5(6H)-one]
32 | < 1000 | COc1ccnc(-c2ccccc2C2CC(=O)c3c(C)nc(N)nc3C2)c1 (centres unmarked) [Compound 125, 2-amino-7-[2-(4-methoxy-pyridin-2-yl)-phenyl]-4-methyl-7,8-dihydro-6H-quinazolin-5-one]
33 | < 1000 | Cc1cccc(-c2ccccc2C2CC(=O)c3c(C)nc(N)nc3C2)c1F (centres unmarked) [Compound 126, 2-amino-7-(2′-fluoro-3′-methyl-1,1′-biphenyl-2-yl)-4-methyl-7,8-dihydroquinazolin-5(6H)-one]
34 | < 1000 | Cc1nc(N)nc2c1C(=O)CC(c1ccccc1-c1cccc3[nH]ccc13)C2 (centres unmarked) [Compound 128, 2-amino-7-[2-(1H-indol-4-yl)phenyl]-4-methyl-7,8-dihydroquinazolin-5(6H)-one]
35 | < 1000 | Cc1ccccc1Oc1ccccc1C1CC(=O)c2c(C)nc(N)nc2C1 (centres unmarked) [Compound 134, 2-amino-4-methyl-7-[2-(2-methylphenoxy)phenyl]-7,8-dihydroquinazolin-5(6H)-one]
36 | > 10000 | Cc1ccc(Oc2ccccc2C2CC(=O)c3c(C)nc(N)nc3C2)cc1 (centres unmarked) [Compound 136, 2-amino-4-methyl-7-[2-(4-methylphenoxy)phenyl]-7,8-dihydroquinazolin-5(6H)-one]
37 | < 1000 | Cc1nc(N)nc2c1C(=O)CC(c1ccccc1Oc1ccccc1F)C2 (centres unmarked) [Compound 138, 2-amino-7-[2-(2-fluorophenoxy)phenyl]-4-methyl-7,8-dihydroquinazolin-5(6H)-one]
38 | < 1000 | Cc1nc(N)nc2c1C(=O)CC(c1ccc(F)cc1Oc1ccccc1)C2 (centres unmarked) [Compound 140, 2-amino-7-(4-fluoro-2-phenoxy-phenyl)-4-methyl-7,8-dihydro-6H-quinazolin-5-one]
39 | < 1000 | Cc1nc(N)nc2c1C(=O)CC(c1ccccc1Oc1cnccn1)C2 (centres unmarked) [Compound 143, 2-amino-4-methyl-7-[2-(pyrazin-2-yloxy)phenyl]-7,8-dihydroquinazolin-5(6H)-one]
40 | < 1000 | CCOc1cccc(-c2cccnc2F)c1C1CC(=O)c2c(C)nc(N)nc2C1 (centres unmarked) [Compound 151, 2-amino-7-[2-ethoxy-6-(2-fluoro-pyridin-3-yl)-phenyl]-4-methyl-7,8-dihydro-6H-quinazolin-5-one]
41 | 1000 to 10000 | Cc1nc(N)nc2c1C(=O)CC(c1ccccc1OCCN1CCN(C)CC1)C2 (centres unmarked) [Compound 152, 2-amino-4-methyl-7-{2-[2-(4-methyl-piperazin-1-yl)-ethoxy]-phenyl}-7,8-dihydro-6H-quinazolin-5-one]

From US20070027150A1 (priority 2005, published 2007)
